# In paper PMC3155955 (Bioorganic & medicinal chemistry letters, 2011):
# Assays:
# [1] = test system: CCD-18Co normal colon fibroblasts; experiment: MTS cytotoxicity assay, CCD-18Co; assay type: cell-based, human; settings: colon cancer cells (HCT-116, Caco-2) vs CCD-18Co
# [2] = test system: Caco-2 human colon cancer cells; experiment: MTS cytotoxicity assay, Caco-2; assay type: cell-based; settings: Caco-2, read-out: IC50 (consistent values of the control)
# [3] = test system: HCT-116 human colon cancer cells; experiment: MTS cytotoxicity assay, HCT-116; assay type: cell-based
structure (smiles),measurement,setting,value
CCC(CC)COc1c(OC)cc2c3c1-c1cc4c(cc1C[C@@H]3N(C)CC2)OCO4 [Compound 3],selectivity for colon cancer cells vs normal colon fibroblasts (CCD-18Co),[1],approximately 2 fold
COc1cc([C@@H]2c3cc4c(cc3[C@@H](O[C@@H]3O[C@@H]5CO[C@@H](C)O[C@H]5[C@H](O)[C@H]3O)[C@H]3COC(=O)[C@H]23)OCO4)cc(OC)c1O [etoposide],IC50,[2],15 to 25 µM
same,IC50,"[3]; Homo sapiens, HCT-116, read-out: IC50 (consistent values of the control)",15 to 25 µM
"COc1cc2c3c(c1O)-c1cc4c(cc1C[C@@H]3N(C)CC2)OCO4 [Compound 1, domesticine]",fold less potent than the benchmark etoposide,[3]; HCT-116 cell line,approximately 3 fold
